The numbers were not newly measured in patent US6384213B1, “Process for preparing a pure, pharmacopoeial grade amorphous form of cefuroxime axetil” (Ranbaxy Laboratories Limited, priority 1998, dated 2002), which cites them from elsewhere.

The conditions of data set [1]: amorphous form essentially free from crystalline material, purity at least 95%, compared with crystalline form.
For data set [2] the following is noted: amorphous form essentially free from crystalline material, purity at least 95%.

`CO/N=C(\C(=O)N[C@@H]1C(=O)N2C(C(=O)OC(C)OC(C)=O)=C(COC(N)=O)CS[C@H]12)c1ccco1` (some centres unmarked) [cefuroxime axetil in amorphous form, cefuroxime axetil]: the bioavailability result in data set [1] is “higher bioavailability than the crystalline form”. The chemical stability entry in data set [2] was “adequate chemical stability”.
